Data as given in patent publication US11058690B2, “Use of cytochrome bc1 complex inhibitor in preparing pharmaceutical composition” (BEIJING WEILANZHIYUAN MEDICAL TECHNOLOGY CO., LTD., priority 2017, dated 2021).

Assays:
[1] = system: rat uterine smooth muscle; test: contraction of rat uterine smooth muscle induced by acetylcholine; format: cell-based; details: acetylcholine (0.25 μM)
Method: (§1) Female healthy Wistar rats weighing 230-270 g were used in the experiment. At 2 days before the experiment, Diethylstilbestrol suspension was injected intraperitoneally once at 0.1 mg/kg, resulting in artificial estrus. The rats were sacrificed by cervical dislocation, and the uterus was removed by laparotomy and immediately placed in a glass plate containing Tyrode's solution. […] The materials stood for 20-30 minutes, liquid was changed 2-3 times, then the uterus was given a load of 1 g and kept for 30-60 minutes until the uterus had regular contraction waves, 40 mM KCL solution was provided for 10 minutes, and the function of the uterine muscle strips was evaluated. Then the muscle strips were relaxed and washed 2-3 times with Tyrode's solution, then let stand for 30 minutes; after standing, the uterine muscle strips were given a load of 1 g and kept for 30-60 minutes, and the administration and the observation were carried out after the uterine muscle strips contracted stably (i.e. regular contraction waveforms appear in a microcomputer display screen), the changes of relevant data such as contraction tension, amplitude and area under the contraction curve of the uterine smooth muscle strips were recorded, and the drug given was evaluated. […]

[2] = system: Kunming male mice; test: acetic acid writhing test on mice; format: in vivo, mouse; details: for Writhe starting time / Number of writhing times: Table 3; for Number of writhing times: within 30 min
[3] = system: MLC20; test: phosphorylation of MLC20 in rat uterine smooth muscle cells induced by PGF2α (Western blotting); format: cell-based; details: 5 μM and 10 μM pretreatment; PGF2α stimulation 5 minutes
Description: A tissue mass culture method was adopted: rats treated with diethylstilbestrol were sacrificed through dislocation and soak in 75% alcohol for disinfection, open the abdominal cavity under an aseptic condition, separate the uterus, transfer it to a plate, cut open the uterus to remove the outer membrane of the uterus, gently scrape off the inner membrane of the uterus with a blade, gently peel off the outer membrane of the uterus with a tweezer, cut the intact smooth muscle into small pieces of less than 1×1×1 mm^3, uniformly stick them to the wall of a culture bottle, add a culture solution with the bottom up, gently turn over after culture at 5% CO2 and 37° C. for 3-4 hours, and soak in an RPMI-1640 culture solution (containing 20% calf bovine serum) for about one week until the cells can be connected into pieces to form monolayer cultured cells. At this time, the culture solution in the bottle was poured out, the tissue masses in the bottle were washed twice with PBS and removed, and a proper amount of 0.25% trypsin was added. Calf bovine serum was added to stop the reaction when most cells contracted and became round under microscope, the liquid was poured out, and the cells were washed twice with PBS and added with a proper amount of RPMI-1640, and the eluted cells were gently washed with a pipette to prepare a cell suspension for later use. […]

[4] = system: rat uterine smooth muscle; test: contraction of rat uterine smooth muscle induced by potassium chloride; format: cell-based; details: potassium chloride (16 mM)
Method: as §1

[5] = system: Kunming female mice; test: PGF2α-induced dysmenorrhea model in mice (diethylstilbestrol sensitization); format: in vivo, mouse; details: for Number of writhing times: within 30 min
Method: A mouse dysmenorrhea model was established with reference to Yang L., Cao Z., Yu B. & Chai C. An in vivo mouse model of primary dysmenorrhea. Exp Anim. 2015, August 64, 295-303. Adult healthy Kunming female mice were randomly grouped, 10 mice in each group. Experimental mice were intragastrically given diethylstilbestrol 0.2 mg daily for 12 days. Different kinds and dosages of the inhibitors of the cytochrome bc1 complex were given intraperitoneally or intragastrically 30 min after the last administration. Indometacin (50 mg/kg) was injected intraperitoneally as positive control, PGF2α (1.3 mg/kg) or oxytocin (20 U/kg) was injected intraperitoneally 1 h later, and the writhe starting time (reaction latency) and the number of writhing times within 30 min were observed and recorded.

[6] = Table 7, 100 mg/Kg intraperitoneal
[7] = Table 7, 200 mg/Kg intraperitoneal

Question: With `CO/C=C(/C(=O)OC)c1ccccc1COc1cc(C(F)(F)F)nc(OC(C)C)n1` [FAPM, fluacrypyrim] as the compound, how does the IC50 [1] read?
Answer: 1.36 ± 0.04 µM

Question: What about the “curative effect compared with indomethacin” value ([2]; 100 mg/Kg versus indomethacin 50 mg/Kg) of the same compound?
Answer: equivalent to indomethacin at 50 mg/Kg

Question: And the “writhe starting time (reaction latency) compared with control group” value ([2]; FAPM and trifloxystrobin intraperitoneal, azoxystrobin intragastric)?
Answer: significantly prolonged

Question: And the Writhe starting time ([2]; 50 mg/Kg intraperitoneal)?
Answer: 3.4 ± 1.1 min

Question: What about the “Number of writhing times” value ([2]; 50 mg/Kg intraperitoneal, 1 hour before acetic acid) of the same compound?
Answer: 25.3 ± 4.7

Question: And the Writhe starting time ([2]; 100 mg/Kg intraperitoneal)?
Answer: 4.6 ± 1.5 min

Question: And the “Number of writhing times” value ([2]; 100 mg/Kg intraperitoneal)?
Answer: 17.6 ± 3.5

Question: And the Writhe starting time ([2]; 200 mg/Kg intraperitoneal)?
Answer: 11.9 ± 2.6 min

Question: And the “Number of writhing times” value ([2]; 200 mg/Kg intraperitoneal)?
Answer: 2.4 ± 2.2

Question: And the “phosphorylation of MLC20 (gray analysis, words)” value [3]?
Answer: significantly inhibited

Question: And the IC50 [4]?
Answer: 1.21 ± 0.07 µM

Question: And the “curative effect compared with indomethacin” value ([5]; 50 mg/Kg versus indomethacin 50 mg/Kg)?
Answer: equivalent to indomethacin at 50 mg/Kg

Question: What about the “Writhe starting time” value ([5]; 200 mg/Kg intraperitoneal) of the same compound?
Answer: significantly prolonged

Question: And the “effect on number of writhing times” value ([5]; FAPM intraperitoneal, azoxystrobin intragastric, 50, 100 and 200 mg/Kg one hour before)?
Answer: in a dose-dependent manner

Question: What about the Writhe starting time ([5]; Table 7, 50 mg/Kg intraperitoneal) of the same compound?
Answer: 1.24 ± 0.66 min

Question: And the “Number of writhing times” value ([5]; Table 7, 50 mg/Kg intraperitoneal, 1 h before PGF2α (1.3 mg/kg))?
Answer: 18.3 ± 3.3

Question: What about the Writhe starting time [5, 6] of the same compound?
Answer: 1.43 ± 0.73 min

Question: What about the “Number of writhing times” value [5, 6] of the same compound?
Answer: 12.5 ± 1.7

Question: And the Writhe starting time [5, 7]?
Answer: 2.15 ± 0.34 min

Question: What about the “Number of writhing times” value [5, 7] of the same compound?
Answer: 5.8 ± 1.2
